Results published in patent publication US10786505B2, “Administration of NEDD8-activating enzyme inhibitor and chemotherapeutic agents” (Millennium Pharmaceuticals, Inc., priority 2013, dated 2020).

Columns and labels:
NCI-H69 xenograft model = assay: Combination of carboplatin and MLN4924 in NCI-H69 xenograft model; assay type: in vivo, mice
Description: NCI-H69 or NCI-H82 small cell lung tumor fragments (30- to 40-mg) are implanted into the subcutaneous space in the area of the right flank of NCr nu/nu mice (7-10 weeks, Charles River Laboratories, Inc, Frederick Md. or Wilmington, Mass.) using a 12-gauge trocar.
(§1) Carboplatin (CARBOplatin Injection, Hospira, Inc., Qilu Pharmaceutical Co., Ltd. Jinan, Shandong, China, and Teva Gry-Pharma GmbH, Ulm, Germany) is formulated in 0.9% saline and administered by IP injection once weekly (QW) at 50 mg/kg. The once weekly schedule is also described as every 7 days (Q7D).
(§2) Tumors are measured twice weekly using a vernier caliper. Tumor volumes are calculated using standard procedures (0.5×(length×width^2)). […] Tumor size and body weight are measured approximately twice a week for the duration of the study. Mice are euthanized when their tumor volume reached 10% of their body weight, or when the average tumor volume of a treatment or control group reached approximately 2000 mm^3. Tumor growth continued to be monitored after the dosing period in some studies. Average tumor volume is reported as a function of time for selected groups of selected studies in Figures A, B, and C.
(§3) Measurements from day 0 to 18, 21 or 22 are analyzed as specified in Tables 4-9. All tumor volumes have a value of 1 added to them before log10 transformation. For each animal, the log tumor volume at day 0 is subtracted from the log tumor volume on the subsequent days. This difference vs. time is used to calculate an area under the curve (AUC) for each animal using the trapezoid rule. […] The synergy score for the combination of agents A and B is defined as 100*(mean(AUCAB)−mean(AUCA)−mean(AUCB)+mean(AUCctl))/mean(AUCctl): where AUCAB, AUCA, AUCB, and AUCctl are the AUC values for animals in the combination group, the A group, the B group, and the control group, respectively. The standard error of the synergy score is computed based on the variation in the AUC values among the animals. […] If the P-value is above 0.05, then the combination is considered to be additive. If the P-value is below 0.05, and the synergy score is less than zero, then the combination is considered to be synergistic. […] Otherwise, the combination is classified as antagonistic.

A549 = assay: In vitro cell viability combination assay (CellTiter-Glo); settings: agent combined with MLN4924, vehicle PBS, 72 hr
CHAGO-K-1 = assay: as above; assay type: cell-based; settings: agent combined with MLN4924, vehicle PBS, 72 hr
Text: (§4) After normalization, the controls are discarded.
(§5) Otherwise, the classification is “Additivity”.

NCI-H69 = assay: as above; assay type: cell-based; settings: agent combined with MLN4924, vehicle DMSO, 96 hr
Text: as §4, §5

SK-MES-1 = assay: as above; assay type: cell-based; settings: agent combined with MLN4924, vehicle PBS, 72 hr
Text: as §4, §5

LK-2 = assay: as above; assay type: cell-based; settings: agent combined with MLN4924, vehicle PBS, 72 hr
Text: as §4, §5

LC-1-SQ = assay: as above; assay type: cell-based; settings: agent combined with MLN4924, vehicle PBS, 72 hr
Text: as §4, §5

EBC-1 = assay: as above; assay type: cell-based; settings: agent combined with MLN4924, vehicle PBS, 72 hr
Text: as §4, §5

SW900 = assay: as above; assay type: cell-based; settings: agent combined with MLN4924, vehicle PBS, 72 hr
Text: as §4, §5

NCI-H1703 = assay: as above; assay type: cell-based; settings: agent combined with MLN4924, vehicle PBS, 72 hr
Text: as §4, §5

SW1573 = assay: as above; assay type: cell-based; settings: agent combined with MLN4924, vehicle PBS, 72 hr
Text: as §4, §5

NCI-H596 = assay: as above; assay type: cell-based; settings: agent combined with MLN4924, vehicle PBS, 72 hr
Text: as §4, §5

LUDLU-1 = assay: as above; assay type: cell-based; settings: agent combined with MLN4924, vehicle PBS, 72 hr
Text: as §4, §5

CALU-1 = assay: as above; assay type: cell-based; settings: agent combined with MLN4924, vehicle PBS, 72 hr
Text: as §4, §5

NCI-H1299 = assay: as above; assay type: cell-based; settings: agent combined with MLN4924, vehicle PBS, 72 hr
Text: as §4, §5

NCI-H520 = assay: as above; assay type: cell-based; settings: agent combined with MLN4924, vehicle PBS, 72 hr
Text: as §4, §5

HARA = assay: as above; assay type: cell-based; settings: agent combined with MLN4924, vehicle PBS, 72 hr
Text: as §4, §5

NCI-H2170 = assay: as above; assay type: cell-based; settings: agent combined with MLN4924, vehicle PBS, 72 hr
Text: as §4, §5

VMRC-LCP = assay: as above; assay type: cell-based; settings: agent combined with MLN4924, vehicle PBS, 72 hr
Text: as §4, §5

RERF-LC-SQ1 = assay: as above; assay type: cell-based; settings: agent combined with MLN4924, vehicle PBS, 72 hr
Text: as §4, §5

KNS-62 = assay: as above; assay type: cell-based; settings: agent combined with MLN4924, vehicle PBS, 72 hr
Text: as §4, §5

NCI-H209 = assay: as above; settings: agent combined with MLN4924, vehicle DMSO, 96 hr
Description: (§7) General Method: Cells are grown in their respective growth media, supplemented with 10% fetal bovine serum unless otherwise noted. […] A portion of each plate is used for positive controls (no agent is added), while another portion of each plate is used for negative controls (no cells are added). Viability is assessed with CellTiter-Glo® Cell Viability reagent used according to manufacturer's instructions (Promega). Luminescence is measured using a LEADseeker imaging system (GE Healthcare).
(§8) The viability data is normalized separately for each plate by scaling the data so that the median of the negative controls is 0 and the median of the positive controls is 100. More formally,
(§9) [formula] where Vi is the normalized viability of the i^th well, Ui is the raw viability measurement, median (U) is the median of the negative controls, and median (U+) is the median of the positive controls. After normalization, the controls are discarded.
(§10) where E1, E2, E3, E4, I1, I2, I3, S1, S2, S3, and S4 are parameters, CA and CB are the respective concentrations of agents A and B, and V is the normalized viability measurement. It is assumed that the error values are independent and identically distributed normal random variables.
(§11) The Combination Index is computed based on an isobologram, which is a slice of the dose response surface with constant viability. For the present analysis, the 50% isobologram, which is the dose contour that has 50% viability, is used. […] Since the choice of (DA, DB) can be arbitrary, the constraint DA/DB=EC50A/EC50B is used.
(§12) In such cases, Nonlinear Blending can be used as an alternative measure of synergy or additivity. Nonlinear Blending is found by considering a slice of the dose response surface that intersects both concentration axes and runs parallel to the viability axis. Let VA and VB be the viability where the slice intersects the drug A and B axes, respectively. Let Vmax and Vmin be the maximum and minimum viabilities along the slice. Let NLBS=min(VA,VB)−Vmin NLBA=Vmax−max(VA,VB) Define the Nonlinear Blending value to be NLBS if NLBS>NLBA and −NLBA otherwise.
(§13) After completing the analysis of individual plates, the results are combined across the replicates. For a given measure and a set of replicates, the overall mean and standard error are computed using weighted averaging. A null mean, which corresponded to an additive effect, is then compared with the overall mean. The null mean is 1 for the Combination Index and 0 for Nonlinear Blending. Next, a two sized Z-test is performed based on the estimated mean and standard error. This produces a p-value for each measure and each cell line.
(§14) After computing the mean, standard error, and p-value for each set of replicates, these values require interpretation. Thus, a standard procedure is used to produce a classification (synergy, additivity, subadditivity, antagonism, or inconclusive) in each case. If the Combination Index exists for more than half of the replicates, then these measures are used to make the classification.
(§15) Consider the case where the Combination Index is used to make the classification. If the p-value is greater than 0.05, the estimate for the Combination Index is not statistically different from 1. However, if the standard error is also very large, then the estimate is too uncertain to be informative. […] Otherwise, the classification is “Additivity”. When the p-value is less than 0.05, the estimate for the Combination Index is statistically different from 1. However, if the mean is still close to 1, then the difference is not of practical significance. Thus, the result is classified based on the mean. A mean in the range (0.8, 1.2) is considered close enough to 1 to be classified as Additivity. A mean in the range (0, 0.8) is considered low enough to be classified as Synergy. […] The threshold value of 2 can be derived from the definition of the Combination Index.

NCI-H510 = assay: as above; settings: agent combined with MLN4924, vehicle DMSO, 96 hr
Description: as §7, §8, §9, §10, §11, §12, §13, §14, §15

LU1143 xenograft model = assay: Combination of docetaxel or carboplatin and MLN4924 in LU1143 xenograft model; assay type: in vivo, mice; settings: 50 mg/kg carboplatin QW IP
Description: (§6) Docetaxel (Henry Schein, Inc., Pittsburgh Pa., Qilu Pharmaceutical Co., Ltd., Jinan, Shandong, China, and Sanofi-Aventis) is formulated in 0.9% saline and administered by intravenous injection (IV) once weekly (QW) at 5 mg/kg or 10 mg/kg.
as §1, §2
Measurements from day 0 to 18, 21 or 22 are analyzed as specified in Tables 4-9. All tumor volumes have a value of 1 added to them before log10 transformation. For each animal, the log tumor volume at day 0 is subtracted from the log tumor volume on the subsequent days. This difference vs. time is used to calculate an area under the curve (AUC) for each animal using the trapezoid rule. […] The synergy score for the combination of agents A and B is defined as 100*(mean(AUCAB)−mean(AUCA)−mean(AUCB)+mean(AUCctl))/mean(AUCctl): where AUCAB, AUCA, AUCB, and AUCctl are the AUC values for animals in the combination group, the A group, the B group, and the control group, respectively. The standard error of the synergy score is computed based on the variation in the AUC values among the animals. […] If the P-value is above 0.05, then the combination is considered to be additive. […]

HCT116 = assay: In vitro cell viability combination assay (CellTiter-Glo); settings: agent combined with MLN4924, vehicle PBS, 48 hr
Description: as §7, §8, §9, §10, §11, §12, §13, §14, §15

NCI-H82 = assay: as above; settings: agent combined with MLN4924, vehicle DMSO, 96 hr
Description: as §7, §8, §9, §10, §11, §12, §13, §14, §15

LXFE409 xenograft model = assay: Combination of docetaxel or carboplatin and MLN4924 in LXFE409 xenograft model; assay type: in vivo, mice; settings: LXFE409 xenograft; 50 mg/kg carboplatin QW IP
Description: LXFE409 squamous non small cell lung cancer tumor fragments are implanted into the subcutaneous space in the flank of female NMRI nu/nu mice (5-7 weeks, Janvier Labs, Saint Berthevin, France).
as §6, §1, §2, §3

NCI-H526 = assay: In vitro cell viability combination assay (CellTiter-Glo); settings: agent combined with MLN4924, vehicle DMSO, 96 hr
Description: as §7, §8, §9, §10, §11, §12, §13, §14, §15

N.N.O=C([O-])C1(C(=O)[O-])CCC1.[Pt+2] [carboplatin]
average tumor volume day 21 (NCI-H69 xenograft model; 50 mg/kg carboplatin QW IP): 501.3 mm^3 | tumor growth during the treatment period (in words) (NCI-H69 xenograft model; FIG. 3, MLN4924 SC 120 mg/kg BID Q3Dx2/week, carboplatin 50 mg/kg IP QW, single agents or their combination): inhibited tumor growth compared to the control vehicle group | Combination Index (A549): 0.72 ± 0.05 | Nonlinear Blending (A549): 8 ± 4 | Combination Index (CHAGO-K-1): 0.88 ± 0.03 | Nonlinear Blending (CHAGO-K-1): 11 ± 1 | Combination Index (NCI-H69): 1.18 ± 0.09 | Nonlinear Blending (NCI-H69): −5 ± 1 | Combination Index (SK-MES-1): 1.32 ± 0.06 | Nonlinear Blending (SK-MES-1): −22 ± 4 | Combination Index (LK-2): 0.66 ± 0.05 | Nonlinear Blending (LK-2): 15 ± 2 | Combination Index (LC-1-SQ): 0.51 ± 0.04 | Nonlinear Blending (LC-1-SQ): 28 ± 2 | Combination Index (EBC-1): 1.24 ± 0.06 | Nonlinear Blending (EBC-1): −7 ± 1 | Combination Index (SW900): 0.85 ± 0.06 | Nonlinear Blending (SW900): 10 ± 1 | Combination Index (NCI-H1703): 1.31 ± 0.02 | Nonlinear Blending (NCI-H1703): −23 ± 2 | Nonlinear Blending (SW1573): 6 ± 5 | Combination Index (NCI-H596): 0.59 ± 0.1 | Nonlinear Blending (NCI-H596): 10 ± 7 | Combination Index (LUDLU-1): 0.84 ± 0.2 | Nonlinear Blending (LUDLU-1): 5 ± 5 | Combination Index (CALU-1): 0.78 ± 0.05 | Nonlinear Blending (CALU-1): 11 ± 6 | Combination Index (NCI-H1299): 1.10 ± 0.05 | Nonlinear Blending (NCI-H1299): −8 ± 2 | Nonlinear Blending (NCI-H520): 9 ± 20 | Combination Index (HARA): 1.06 ± 0.1 | Nonlinear Blending (HARA): −3 ± 10 | Combination Index (NCI-H2170): 1.38 ± 0.1 | Nonlinear Blending (NCI-H2170): −19 ± 7 | Combination Index (VMRC-LCP): 1.00 ± 0.04 | Nonlinear Blending (VMRC-LCP): −3 ± 1 | Combination Index (RERF-LC-SQ1): 0.77 ± 0.06 | Nonlinear Blending (RERF-LC-SQ1): 11 ± 1 | Combination Index (KNS-62): 0.82 ± 0.1 | Nonlinear Blending (KNS-62): 10 ± 5 | Combination Index (NCI-H209): 1.00 ± 0.06 | Nonlinear Blending (NCI-H209): −1 ± 1 | Combination Index (NCI-H510): 0.81 ± 0.08 | Nonlinear Blending (NCI-H510): 5 ± 2 | average tumor volume day 21 (LU1143 xenograft model): 658.7 mm^3 | Combination Index (HCT116): 0.71 ± 0.03 | Nonlinear Blending (HCT116): 19 ± 2 | Combination Index (NCI-H82): 0.65 ± 0.1 | Nonlinear Blending (NCI-H82): 12 ± 2 | average tumor volume day 21 (LXFE409 xenograft model): 204.4 mm^3 | Combination Index (NCI-H526): 1.02 ± 0.1 | Nonlinear Blending (NCI-H526): 0 ± 2
